Measured values published in US5763480A, “Inhibitors of cell-medicated disorders” (priority 1994, dated 1998).
Read-outs that look alike come from different tables or passages of the source.

What was measured:
[1] = system: cellular proton pump; test: Blocking of cellular proton pump by metal-chelate complexes / stopping of the block by chelating agents; conditions: for blocking of the cellular proton pump in combination with Tl or In: chelating agent combined with Tl or In
[2] = system: bone resorption; conditions: cited from earlier work
[3] = system: proton pump of the osteoclast ruffled membrane vesicles; format: biochemical; conditions: read-out: 50% effective concentration, inhibition of vesicle acidification, FIG. 3
Excerpt: The effect of the metal-EDTA complexes on the proton pump of isolated osteoclast ruffled membrane vesicles was studied. For the study, the isolation, preparation and assay of the acidifying ruffled membrane vesicles were accomplished according to the procedures of Blair et al., J. Cell. Biochem., 48, 401-410 (1992).
The y-axis indicates the acidification by the membranes in relation to the molar concentration of the test composition, as indicated on the x-axis.

[4] = Solubility of Tl and In EDTA complexes versus halide salts in physiological saline; format: physicochemical; conditions: physiological saline / physiological solvents
Excerpt: The pH of the resulting solutions was then raised to pH 7.0 and filtered to achieve sterility. […] The solubility characteristics of these Tl and In complexes were compared to the solubility characteristics of the respective halogen salts.

[5] = system: bone resorption; conditions: in vivo; cited from earlier work
[6] = system: osteoclasts; test: Inhibition of osteoclast-mediated bone resorption in vitro (release of radiolabelled bone); format: cell-based, laying hens; conditions: read-out: 50% effective concentration, inhibition of bone resorption by osteoclasts in culture, FIG. 2, up to six days, labelled bone, 10,000 cells per well
Procedure: Osteoclasts were isolated from calcium-deprived, laying hens, and metabolically radiolabelled bone was prepared therefrom (Blair et al., J. Cell Biol., 102, 1164-1172 (1986)). These osteoclasts were cultured in 24 well dishes at 10,000 cells per well, to which were added labelled bone and test compounds. The culture supernatants were assayed for released radioactivity for up to six days after the addition of the labelled bone.
The y-axis indicates the percentage of the total radiolabelled bone that was released by osteoclast activity to the culture supernatant in response to varying the molar concentration (x-axis) of the various test compositions. […] The 50% effective concentrations of suramin and gallium nitrate were 700 nM and 2000 nM, respectively.

[7] = system: chloride channel and proton pump of ruffled membrane vesicles; test: Valinomycin reversal test distinguishing chloride channel and proton pump in ruffled membrane vesicles; format: biochemical; conditions: control measurement, 1 micromolar valinomycin
Procedure: Because both the chloride channel and the proton pump are present in the ruffled membrane vesicles, the inhibition of acidification that was observed was possibly due to effects on either or both of these transporters. The effects of these two transporters were distinguished in other experiments by noting and using the differential effects of valinomycin on the chloride channel and proton pump in the presence of 120 mM K^+. This drug relieves the build-up of membrane potential yet permits proton transport.

[8] = system: osteoclast-mediated bone resorption; test: PTH stimulated bone resorption of rats in vivo, serum calcium (hypercalcemia model)
Procedure: The ability of the metal-EDTA complexes to inhibit osteoclast-mediated bone resorption was tested on two groups of experimental rats treated to provide a hypercalcemia model (according to the procedures of Jaeger et al., Am. J. Physiol., 252, E790-E798 (1987)) as compared to two groups of untreated control rats. Experimental rats were surgically parathyroidectomized, and the effectiveness of the parathyroidectomy was gauged by determining the subject rats' serum calcium levels 72 hours post-surgery. A fall in calcium observed at that time reflected the decrease of bone resorption resulting from the removal of the parathyroid glands and the consequent decrease in circulating parathyroid hormone (PTH), a regulator of extra-cellular Ca^++ concentration. […] Serum calcium levels were determined after a 24-hour fast on the third day after the last drug administration and again two weeks later.
All the animals in this study underwent the same two surgical procedures and received PTH via the implanted osmotic pump starting on day 3. […] After the two weeks were complete, serum calcium was determined again and compared to the earlier values and the controls. […]

## O=C(O)CN(CC(=O)O)[C@@H]1CCCC[C@H]1N(CC(=O)O)CC(=O)O (relative stereo) [CDTA, trans-1,2-diaminocyclohexane-N,N,N',N'-tetraacetic acid]
[1]; In(III) and Tl(III)
  stopping of the proton pump-blocking effect by chelating agent: stops the cellular proton pump-blocking effect
[1]
  blocking of the cellular proton pump in combination with Tl or In: ineffective

## [Al] [Aluminum]
[2]; gallium nitrate in humans, aluminum in accidental poisoning
  effect on bone calcium loss / bone resorption: inhibit bone resorption

## O=C(O)CN(CCN(CC(=O)O)CC(=O)O)CCN(CC(=O)O)CC(=O)O [DPTA, diethylenetriaminepentaacetic acid]
[1]; In(III) and Tl(III)
  stopping of the proton pump-blocking effect by chelating agent: stops the cellular proton pump-blocking effect
[1]
  blocking of the cellular proton pump in combination with Tl or In: ineffective

## O=C(O)CN(CCN(CC(=O)O)CC(=O)O)CC(=O)O [EDTA, ethylenediaminetetraacetic acid]
[1]; metal is Tl or In
  suitability for stopping the effect: not a suitable chelating agent for stopping the effect

## O=C(O)CN(CCOCCOCCN(CC(=O)O)CC(=O)O)CC(=O)O [EGTA, ethylene glycol bis (o-aminoethyl ether) N,N,N',N'-tetraacetic acid]
[1]; Ga(III)
  stopping of the proton pump-blocking effect by chelating agent: stops the cellular proton pump-blocking effect
[1]
  blocking of the cellular proton pump in combination with Tl or In: ineffective

## [Ga] [Ga, gallium]
[3]
  EC50: 300 µM

## [Tl] [Tl, thallium]
[3]
  EC50: 30 µM

## [Cl][Tl]([Cl])[Cl] [TlCl3]
[4]
  solubility (in words): could not be prepared

## O=P(O)(O)C(Cl)(Cl)P(=O)(O)O [clodronate]
[5]
  adverse effects: development of acute leukemia
  efficacy on bone resorption and bone disease: effective not only in Paget's disease, but also in the treatment of hypercalcemia and osteolytic bone disease

## CC(O)(P(=O)(O)O)P(=O)(O)O [etidronate]
[5]
  adverse effects: impaired mineralization and thus, paradoxically, increased bone fragility
  efficacy on bone resorption and bone disease: effective inhibitor of bone resorption

## O=[N+]([O-])[O-].O=[N+]([O-])[O-].O=[N+]([O-])[O-].[Ga+3] [gallium nitrate]
[6]
  EC50: 2 µM
[2]; gallium compound treatment
  adverse effects: anemia, nausea and vomiting, and renal toxicity

## Cc1ccc(C(=O)Nc2ccc(S(=O)(=O)O)c3cc(S(=O)(=O)O)cc(S(=O)(=O)O)c23)cc1NC(=O)c1cccc(NC(=O)Nc2cccc(C(=O)Nc3cc(C(=O)Nc4ccc(S(=O)(=O)O)c5cc(S(=O)(=O)O)cc(S(=O)(=O)O)c45)ccc3C)c2)c1 [suramin]
[6]; Osteoclast, 144 h
  EC50: 0.7 µM

## CC(C)[C@@H]1NC(=O)[C@H](C)OC(=O)[C@@H](C(C)C)NC(=O)[C@@H](C(C)C)OC(=O)[C@H](C(C)C)NC(=O)[C@H](C)OC(=O)[C@@H](C(C)C)NC(=O)[C@@H](C(C)C)OC(=O)[C@H](C(C)C)NC(=O)[C@H](C)OC(=O)[C@@H](C(C)C)NC(=O)[C@@H](C(C)C)OC1=O [valinomycin]
[7]
  recovery of acidification after chloride channel inhibition: recovered when 1 micromolar valinomycin was added

## PTH: synthetic PTH (BPTH 1-34 (i.e., rat peptide 1-34), purchased from Bachem California) (AVSEIQLMHNLGKHLASVERMQWLRKKLQDVHNF; Parathyroid hormone; UniProt P04089 32-65, looked up, fragment)
[8]; PTH without Tl-EDTA or In-EDTA, with or without parathyroid gland
  serum calcium (in words): elevated calcium concentrations
[8]; constant PTH by subcutaneous osmotic pump, parathyroidectomized rats
  serum calcium level relative to pretreatment levels: 150%
